Patent publication US20200263184A1, “PHARMACEUTICAL COMPOSITION FOR PREVENTING AND TREATING CANCER, CONTAINING MALATE-ASPARTATE SHUTTLE INHIBITOR AND ANTICANCER DRUG AS ACTIVE INGREDIENTS” (NATIONAL CANCER CENTER, priority 2017, published 2020)

How the values were obtained:
Assay type in all cases: cell-based
[1] = tested on: IMR90 cells (normal control); test: Mitochondrial membrane potential (TMRE), IMR90; conditions: single drug alone (4 mM PSA or PA; 10 μM gossypol), 48 hours
Description: (§1) Specifically, A549 cells, UACC62 cells, and IMR90 cells, as a normal control, were cultured. The respective cultured cells were treated with a drug mixture of 4 mM of an SLC25A11 inhibitor (PSA or PA), which is an MAS inhibitor, and 10 μM gossypol or with only one of the drugs and cultured in the same manner as described above for 48 hours, and then each cell culture solution was dispensed into chamber slides (for fluorescence microscopy) or a 6-well plate (for flow cytometry). The dispensed culture solution was treated with 100 nM tetramethylrodamine ester (TMRE) as a fluorescent probe and a reaction was allowed to occur therebetween for 20 minutes. After the reaction, the cells were washed with cooled PBS, and the fluorescence development of the cells was measured using a Zeiss LSM510 fluorescence microscope (Carl Zeiss, Oberkochen, Baden-Wurttemberg, Germany). In addition, fluorescence intensity was analyzed in a flow cytometer using a 585 nm (FL-2) channel.

[2] = tested on: cancer cell lines; test: Intracellular ATP level, MAS inhibitor and gossypol, cancer cell lines; conditions: 10 μM gossypol alone vs 4 mM PSA or PA alone, 48 hours
Description: Specifically, A549 cells, IMR90 cells, H23 cells, H226 cells, H522 cells, and EKVX cells, which are lung cancer cell lines; and UACC62 cells, MALME-3M cells, A357 cells, M14 cells, and UACC257 cells, which are melanoma cell lines, were separately cultured. […] for 48 hours, and then intracellular ATP levels were examined using an ATP colorimetric/fluorometric analysis kit (BioVision, Milpitas, Calif., USA) in accordance with the manufacturer's protocol. The incubated cells were divided into groups of 1×10^6 cells, 100 μl of an ATP assay buffer was added thereto to lyse the cells, followed by centrifugation at 15,000×g and 4° C. for 2 minutes to separate only the supernatant. 2 μl to 50 μl of the separated supernatant was transferred to a 96-well plate, and then an ATP assay buffer was added thereto to a final volume of 50 μl per well. […] After mixing, the plate was maintained in a dark room at room temperature for 30 minutes, and then absorbance was measured at 570 nm using a microplate reader. To compare relative ATP levels among the measured values, […], and relative absorbance values of the cases in which cancer cells were treated with each drug were compared, to compare ATP levels in the cells. […]

[3] = tested on: A549 cells; test: Cell apoptosis (Annexin V-FITC/PI flow cytometry), A549; conditions: single drug alone (4 mM PSA or PA; 10 μM gossypol), 48 hours
Description: (§2) First, A549 cells, UACC62 cells, and IMR90 cells, as a normal control, were cultured. The cultured cells were treated with a drug mixture of a 4 mM […] inhibitor (PSA or PA), which is an MAS inhibitor, and 10 μM gossypol or with only one of the drugs and cultured in the same manner as described above for 48 hours. The medium was removed from the cultured cells, followed by washing the cells twice with cold PBS and centrifugation at 1,400 rpm for 3 minutes, and a binding buffer was added thereto so that concentration was 1×10^6 cells/[…]. Then, a […] buffer was transferred to a 5-mL culture tube and 5 μl of each of Annexin V-FITC and propidium iodine (PI) was added thereto. Mixing was performed by slowly vortexing the tube, and then the cells were incubated in a dark room at room temperature for 15 minutes. After incubation, a binding buffer (400 μl) was added thereto and the degree of increase in cell apoptosis was examined by a flow cytometer.

[4] = tested on: UACC62 cells; test: Cell apoptosis (Annexin V-FITC/PI flow cytometry), UACC62; conditions: single drug alone (4 mM PSA or PA; 10 μM gossypol), 48 hours
Description: as §2

[5] = tested on: IMR90 cells (normal control); test: Cell apoptosis (Annexin V-FITC/PI flow cytometry), IMR90; conditions: single drug alone (4 mM PSA or PA; 10 μM gossypol), 48 hours
Description: as §2

[6] = tested on: A549 cells; test: Mitochondrial membrane potential (TMRE), A549; conditions: 10 μM gossypol alone, 48 hours
Description: as §1

[7] = tested on: EKVX, A549, HOP-62 (lung cancer) and UACC62, UACC257, A375 (melanoma) cells; test: SRB cell proliferation, MAS inhibitor and gossypol, cancer cell lines; conditions: 48 hours
[8] = tested on: IMR90 cells (normal control, lung fibroblasts); test: SRB cell proliferation with PSA, IMR90; conditions: normal cell line, PSA 2, 4, 6, 8 or 10 mM, 48 hours
[9] = tested on: A549 cells (lung cancer cell line); test: SRB cell proliferation with PSA, A549; conditions: PSA 2, 4, 6, 8 or 10 mM, 48 hours
Description: (§3) Specifically, A549 cells, H522 cells, H226 cells, H23 cells, and EKVX cells, which are lung cancer cell lines; and UACC62 cells, UACC257 cells, A375 cells, SK-MEL-5 cells, and MALME-3M cells, which are melanoma cell lines, were separately cultured. The respective cells were cultured at a […] dose and inoculated in a 96-well plate at a concentration ranging from 5,000 cells/ml to 20,000 cells/ml according to the doubling time of each cell line. […] After completion of the culturing, to perform SRB analysis, a cooled 50% aqueous TCA solution was added to each well to a final concentration of 10% and the cells were incubated in a 4° C. refrigerated state for 60 minutes and then fixed. After incubation, the supernatant was removed, washed five times with tap water, and dried. A 1% acetic acid aqueous solution containing 0.4% sulforhodamine B was added to the dried sample in each well and maintained at room temperature for 10 minutes to stain the cells. After staining, the dye which was not used for staining was removed by washing with a 1% acetic acid solution, and then the plate was dried again. The dye which was used for staining was dissolved in a 10 mM Trisma base solution, and then absorbance was measured at 515 nm.
(§4) Specifically, A549 cells (lung cancer cell line), UACC62 cells (melanoma cell line), and IMR90 cells (normal control, lung fibroblasts) were separately cultured. […]

[10] = tested on: UACC62 cells (melanoma cell line); test: SRB cell proliferation with PSA, UACC62; conditions: PSA 2, 4, 6, 8 or 10 mM, 48 hours
Description: as §3, §4

[11] = tested on: UACC62 cells (melanoma cell line); test: Intracellular ATP level with PSA or PA, UACC62; conditions: 2, 4, 6, 8 or 10 mM, 48 hours; compared to an untreated control
Description: (§5) Specifically, A549 cells, IMR90 cells, H23 cells, H226 cells, H522 cells, and EKVX cells, which are lung cancer cell lines; and UACC62 cells, MALME-3M cells, A357 cells, M14 cells, and UACC257 cells, which are melanoma cell lines, were separately cultured. […] for 48 hours, and then intracellular ATP levels were examined using an ATP colorimetric/fluorometric analysis kit (BioVision, Milpitas, Calif., USA) in accordance with the manufacturer's protocol. The incubated cells were divided into groups of 1×10^6 cells, 100 μl of an ATP assay buffer was added thereto to lyse the cells, followed by centrifugation at 15,000×g and 4° C. for 2 minutes to separate only the supernatant. 2 μl to 50 μl of the separated supernatant was transferred to a 96-well plate, and then an ATP assay buffer was added thereto to a final volume of 50 μl per well. […] After mixing, the plate was maintained in a dark room at room temperature for 30 minutes, and then absorbance was measured at 570 nm using a microplate reader. To compare relative ATP levels among the measured values, an absorbance value for cancer cells to which gossypol and phenformin were not added was set as a reference, and relative absorbance values of the cases in which cancer cells were treated with each drug were compared, to compare ATP levels in the cells. […]

[12] = tested on: A549 cells (lung cancer cell line); test: Intracellular ATP level with PSA or PA, A549; conditions: 2, 4, 6, 8 or 10 mM, 48 hours; compared to an untreated control
Description: as §5

[13] = tested on: Huh7, SNB19, UACC62, MDA-MB-231, KATO III cancer cell lines; test: SRB cell proliferation, NPM and etomoxir, cancer cell lines; conditions: 25 μM NPM alone, 24 hours; cancer cell lines other than SNB19

In the case of `Cc1cc2c(C(C)C)c(O)c(O)c(C=O)c2c(O)c1-c1c(C)cc2c(C(C)C)c(O)c(O)c(C=O)c2c1O` [gossypol], the mitochondrial membrane potential [1] is reported as “no significant change”, the “intracellular ATP production level, difference between gossypol alone and PSA or PA alone” value [2] is reported as “no significant difference” and the cell apoptosis [3] is reported as “insignificant extent”. For the same compound, the cell apoptosis [4] was “insignificant extent”, the cell apoptosis [5] was “no significant cell apoptosis” and the mitochondrial membrane potential [6] was “significant decrease”. The “effect of inhibiting a cell proliferation level, gossypol alone versus NPM alone” value ([7]; 10 μM gossypol alone vs 25 μM NPM) was “more significantly exhibited” and the “reduction in the cell proliferation level, gossypol alone versus PSA or PA alone” value ([7]; 10 μM gossypol alone vs 4 mM PSA or PA alone) was “more prominent”.
In the case of `O=C(O)CC(C(=O)O)c1ccccc1` (stereo not shown) [PSA, phenyl succinic acid], the cell proliferation [8] is reported as “not significantly inhibited”, the “level of cancer cell line proliferation” value [9] is reported as “reduced in a manner dependent upon the concentration of added PSA” and the “level of cancer cell line proliferation” value [10] is reported as “reduced in a manner dependent upon the concentration of added PSA”. For the same compound, the “intracellular ATP levels” value [11] was “reduced” and the “intracellular ATP levels” value [12] was “reduced”.
With `O=C(O)C(=O)c1ccccc1C(=O)O` [PA, phthalonic acid] the “intracellular ATP levels” value [11] was “reduced” and the “intracellular ATP levels” value [12] was “reduced”.
In the case of `O=C1C=CC(=O)N1c1ccc2ccc3cccc4ccc1c2c34` [NPM, N-(1-pyrenyl)maleimide], the “effect of inhibiting cancer cell proliferation” value [13] is reported as “could be exhibited”.
